The CheMixHub viscosity set
± gives the uncertainty stated by the source.

Experiment: xn = mol fraction of the nth substance listed

CCCCCCCCCCN + C1CCCCC1
303.15 K, 101 kPa
Conditions | viscosity [mPa·s]
x2 = 0.2056 | 1.562 ± 0.017
x2 = 0.3987 | 1.361 ± 0.015
x2 = 0.5065 | 1.239 ± 0.014
x2 = 0.5875 | 1.159 ± 0.013
x2 = 0.7947 | 0.9708 ± 0.011

CCCN(CCC)CCC + C1CCCCC1
viscosity [mPa·s], 101 kPa
Conditions | x1 = 0.01088 | x1 = 0.02001 | x1 = 0.0305 | x1 = 0.04057 | x1 = 0.05108 | x1 = 0.05957 | x1 = 0.06928 | x1 = 0.07872 | x1 = 0.08785
303.15 K | 0.8118 ± 0.0056 | 0.8071 ± 0.0056 | 0.8005 ± 0.0055 | 0.7936 ± 0.0055 | 0.7874 ± 0.0055 | 0.7784 ± 0.0054 | 0.7721 ± 0.0054 | 0.766 ± 0.0054 | 0.7599 ± 0.0054
313.15 K | 0.7082 ± 0.005 | 0.6992 ± 0.005 | 0.6899 ± 0.0049 | 0.6808 ± 0.0049 | 0.673 ± 0.0049 | 0.6664 ± 0.0049 | 0.6605 ± 0.0048 | 0.6541 ± 0.0048 | 0.6465 ± 0.0048

CCCN(CCC)CCC + C1COCCO1
Conditions | viscosity [mPa·s]
303.15 K, 101 kPa, x1 = 0.0198 | 1.045 ± 0.0077

Cc1ccc(C(C)C)c(O)c1 + CC12CCC(CC1)C(C)(C)O2
viscosity [mPa·s], 101.33 kPa
Conditions | x1 = 0.5865 | x1 = 0.6068 | x1 = 0.6272 | x1 = 0.6462 | x1 = 0.6661 | x1 = 0.6858 | x1 = 0.7057
293.15 K | 43.71 ± 0.94 | 45.56 ± 0.98 | 46.15 ± 0.99 | 46.86 ± 1 | 46.28 ± 1 | 45.95 ± 0.99 | 44.22 ± 0.95
298.15 K | 29.92 ± 0.75 | 30.8 ± 0.79 | 31.35 ± 0.79 | 31.41 ± 0.81 | 31.27 ± 0.8 | 30.92 ± 0.8 | 29.82 ± 0.77

CCN(CC)c1ccccc1 + CC(=O)O
viscosity [mPa·s], 101 kPa
Conditions | 298.15 K | 318.15 K
x2 = 0.0992 | 2.081 ± 0.055 | 1.363 ± 0.036
x2 = 0.1985 | 2.343 ± 0.062 | 1.489 ± 0.04
x2 = 0.2959 | 2.722 ± 0.072 | 1.597 ± 0.043
x2 = 0.3986 | 3.462 ± 0.092 | 1.91 ± 0.051
x2 = 0.5022 | 4.639 ± 0.12 | 2.408 ± 0.065
x2 = 0.598 | 6.4 ± 0.17 | 3.1 ± 0.084
x2 = 0.7002 | 9.548 ± 0.25 | 4.198 ± 0.12
x2 = 0.7469 | 10.94 ± 0.29 | 4.721 ± 0.13
x2 = 0.7982 | 12 ± 0.31 | 5.159 ± 0.14
x2 = 0.8467 | 10.95 ± 0.29 | 4.965 ± 0.14
x2 = 0.9027 | 6.538 ± 0.17 | 3.527 ± 0.094

CCOC(=O)CC(=O)OCC + CC(=O)c1ccccc1
viscosity [mPa·s], 101 kPa
Conditions | x1 = 0.0812 | x1 = 0.1401 | x1 = 0.2516 | x1 = 0.3486 | x1 = 0.4322 | x1 = 0.5248 | x1 = 0.6335 | x1 = 0.7384 | x1 = 0.8256 | x1 = 0.9278
303.15 K | 1.564 ± 0.034 | 1.587 ± 0.034 | 1.626 ± 0.035 | 1.655 ± 0.036 | 1.677 ± 0.036 | 1.697 ± 0.037 | 1.714 ± 0.037 | 1.727 ± 0.037 | 1.732 ± 0.038 | 1.738 ± 0.038
308.15 K | 1.412 ± 0.031 | 1.43 ± 0.031 | 1.461 ± 0.032 | 1.487 ± 0.032 | 1.506 ± 0.033 | 1.524 ± 0.033 | 1.54 ± 0.033 | 1.55 ± 0.034 | 1.559 ± 0.034 | 1.567 ± 0.034
313.15 K | 1.315 ± 0.028 | 1.334 ± 0.029 | 1.363 ± 0.029 | 1.384 ± 0.03 | 1.4 ± 0.03 | 1.416 ± 0.031 | 1.43 ± 0.031 | 1.44 ± 0.031 | 1.446 ± 0.031 | 1.454 ± 0.031

ClCCCCl + CC(C)CO
viscosity [mPa·s], 101 kPa
Conditions | x1 = 0.0989 | x1 = 0.2041 | x1 = 0.3021 | x1 = 0.3988 | x1 = 0.5019 | x1 = 0.602 | x1 = 0.704 | x1 = 0.8027 | x1 = 0.8982
298.15 K | 2.523 ± 0.021 | 1.948 ± 0.016 | 1.604 ± 0.013 | 1.373 ± 0.011 | 1.194 ± 0.0095 | 1.078 ± 0.0086 | 1.001 ± 0.008 | 0.9476 ± 0.0078 | 0.9412 ± 0.0078
313.15 K | 1.637 ± 0.016 | 1.327 ± 0.012 | 1.127 ± 0.0099 | 1.001 ± 0.0086 | 0.8964 ± 0.0076 | 0.8306 ± 0.007 | 0.789 ± 0.0067 | 0.7599 ± 0.0064 | 0.7565 ± 0.0065

Cc1ccc(C(C)C)c(O)c1 + CC(C)[C@@H]1CC[C@@H](C)C[C@H]1O
Conditions | viscosity [mPa·s]
293.15 K, 100 kPa, x1 = 0.333 | 68.78 ± 1.9
293.15 K, 100 kPa, x1 = 0.5 | 54.01 ± 1.4
298 K, 101 kPa, x2 = 0.2 | 25.3 ± 1.1
298 K, 101 kPa, x2 = 0.25 | 26.8 ± 1.2
298 K, 101 kPa, x2 = 0.333 | 32 ± 1.4
298.15 K, 100 kPa, x1 = 0.333 | 43.86 ± 1.2
298.15 K, 100 kPa, x1 = 0.5 | 35.41 ± 0.97
303.15 K, 100 kPa, x1 = 0.333 | 29.46 ± 0.79
303.15 K, 100 kPa, x1 = 0.5 | 24.33 ± 0.64
308.15 K, 100 kPa, x1 = 0.333 | 20.66 ± 0.54
308.15 K, 100 kPa, x1 = 0.5 | 17.41 ± 0.44
313.15 K, 100 kPa, x1 = 0.333 | 15.01 ± 0.38
313.15 K, 100 kPa, x1 = 0.5 | 12.89 ± 0.32
318.15 K, 100 kPa, x1 = 0.333 | 11.25 ± 0.28
318.15 K, 100 kPa, x1 = 0.5 | 9.84 ± 0.24
323.15 K, 100 kPa, x1 = 0.333 | 8.69 ± 0.21
323.15 K, 100 kPa, x1 = 0.5 | 7.72 ± 0.18

CCCCCCCCCCCC(=O)OCC + CCC1CCCCC1
viscosity [mPa·s], 100 kPa
Conditions | x2 = 0.1001 | x2 = 0.1999 | x2 = 0.3 | x2 = 0.3999 | x2 = 0.5001 | x2 = 0.5999 | x2 = 0.7 | x2 = 0.7999 | x2 = 0.9
293.15 K | 3.07 ± 0.067 | 2.768 ± 0.06 | 2.476 ± 0.054 | 2.193 ± 0.048 | 1.919 ± 0.042 | 1.663 ± 0.036 | 1.429 ± 0.031 | 1.219 ± 0.027 | 1.023 ± 0.022
298.15 K | 2.752 ± 0.06 | 2.485 ± 0.054 | 2.228 ± 0.049 | 1.977 ± 0.043 | 1.742 ± 0.038 | 1.519 ± 0.033 | 1.318 ± 0.029 | 1.134 ± 0.025 | 0.963 ± 0.021
303.15 K | 2.479 ± 0.054 | 2.251 ± 0.049 | 2.027 ± 0.044 | 1.808 ± 0.039 | 1.597 ± 0.035 | 1.402 ± 0.031 | 1.222 ± 0.027 | 1.057 ± 0.023 | 0.901 ± 0.02
308.15 K | 2.232 ± 0.049 | 2.036 ± 0.044 | 1.841 ± 0.04 | 1.651 ± 0.036 | 1.468 ± 0.032 | 1.296 ± 0.028 | 1.131 ± 0.025 | 0.981 ± 0.021 | 0.837 ± 0.018
313.15 K | 2.033 ± 0.044 | 1.86 ± 0.041 | 1.686 ± 0.037 | 1.516 ± 0.033 | 1.352 ± 0.03 | 1.197 ± 0.026 | 1.05 ± 0.023 | 0.913 ± 0.02 | 0.786 ± 0.017
318.15 K | 1.87 ± 0.041 | 1.716 ± 0.037 | 1.561 ± 0.034 | 1.406 ± 0.031 | 1.258 ± 0.027 | 1.119 ± 0.024 | 0.987 ± 0.022 | 0.864 ± 0.019 | 0.745 ± 0.016
323.15 K | 1.697 ± 0.037 | 1.562 ± 0.034 | 1.423 ± 0.031 | 1.289 ± 0.028 | 1.159 ± 0.025 | 1.036 ± 0.023 | 0.92 ± 0.02 | 0.81 ± 0.018 | 0.7 ± 0.015

CCOC(=O)CC(=O)OCC + CCC(=O)CC
viscosity [mPa·s], 101 kPa
Conditions | x1 = 0.0736 | x1 = 0.1356 | x1 = 0.2458 | x1 = 0.3326 | x1 = 0.4124 | x1 = 0.5158 | x1 = 0.6256 | x1 = 0.7456 | x1 = 0.8626 | x1 = 0.9415
303.15 K | 0.488 ± 0.011 | 0.535 ± 0.012 | 0.633 ± 0.014 | 0.725 ± 0.016 | 0.814 ± 0.018 | 0.94 ± 0.02 | 1.094 ± 0.024 | 1.273 ± 0.028 | 1.475 ± 0.032 | 1.627 ± 0.035
308.15 K | 0.45 ± 0.01 | 0.493 ± 0.011 | 0.58 ± 0.013 | 0.658 ± 0.014 | 0.742 ± 0.016 | 0.859 ± 0.019 | 0.999 ± 0.022 | 1.162 ± 0.025 | 1.341 ± 0.029 | 1.478 ± 0.032
313.15 K | 0.437 ± 0.009 | 0.477 ± 0.01 | 0.56 ± 0.012 | 0.633 ± 0.014 | 0.708 ± 0.015 | 0.812 ± 0.017 | 0.938 ± 0.02 | 1.089 ± 0.023 | 1.25 ± 0.027 | 1.375 ± 0.03
